Source: US9187492B2, “Pyripyropene derivative having ACAT2 inhibiting activity and stable to metabolizing enzymes” (School Juridical Person Kitasato Institute, priority 2010, dated 2015)

What was measured:
[1] = Stability against metabolizing enzymes in the liver (hepatic microsome); details: time until remaining amount reached 50%, 37° C.; for half-life at 6 μg/mL: female, Sprague-Dawley (SD), rat, liver microsomes, pH 7.4, Half-life; for Half-life: female SD rat hepatic microsome, 6 μg/mL, pH 7.4
ACAT2 = target: T1, ACAT2 (Mus musculus, UniProt O88908); assay: Measurement of ACAT2-inhibiting activity (murine hepatic microsome, [14C]cholesteryl oleate formation); format: biochemical; details: for IC50: murine hepatic microsome membrane fraction, 5 min at 37° C., read-out: Inhibitory activity (concentration required for 50% inhibition of ACAT 2 = IC50); for Specific activity ((IC50 of the test compound)/(IC50 of PRD 043)): relative to PRD 043, class symbols
T1 construct: The resulting sediment was collected as a microsome fraction; from tissue; host or cells: mouse liver (hepatic microsome membrane fraction)
T1 sequence (O88908 1-525): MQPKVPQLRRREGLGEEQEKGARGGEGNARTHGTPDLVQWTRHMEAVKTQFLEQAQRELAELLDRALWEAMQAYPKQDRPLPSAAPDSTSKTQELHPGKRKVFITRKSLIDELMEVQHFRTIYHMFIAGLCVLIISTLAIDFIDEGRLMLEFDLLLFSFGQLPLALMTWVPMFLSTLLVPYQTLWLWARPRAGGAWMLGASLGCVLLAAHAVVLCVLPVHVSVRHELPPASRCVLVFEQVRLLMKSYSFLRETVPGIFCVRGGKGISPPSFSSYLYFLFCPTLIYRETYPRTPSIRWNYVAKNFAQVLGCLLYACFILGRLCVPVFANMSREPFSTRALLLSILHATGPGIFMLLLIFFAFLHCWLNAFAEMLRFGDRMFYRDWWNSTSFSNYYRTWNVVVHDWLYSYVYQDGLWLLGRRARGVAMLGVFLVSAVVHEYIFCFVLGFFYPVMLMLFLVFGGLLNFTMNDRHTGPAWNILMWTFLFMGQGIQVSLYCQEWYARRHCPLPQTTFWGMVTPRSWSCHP
Experimental: The enzyme source which was used was a membrane fraction derived from murine hepatic microsome. Mouse livers were homogenized in buffer solution A (50 mM Tris HCl solution (pH 7.8), 1 mM ethylene diamine tetraacetate, and 1 mM phenylmethanesulfonyl fluoride) using a Potter-type homogenizer (Tokyo-Riko). The homogenate was centrifuged at 12000×g, and the supernatant was subjected to ultracentrifugation at 100000×g. The resulting sediment was collected as a microsome fraction, and this fraction was adjusted so as to have a protein concentration of 5 mg/mL using buffer solution A.
As a control, 10 μL of methanol were used in place of the pyripyropene derivative.
The chloroform layer was evaporated to dryness and was used to spot a thin layer chromatography plate (silica gel plate, Merck, 0.5 mm thickness). Elution for separation was carried out using hexane/diethyl ether/acetic acid (70:30:1, v/v) as an eluant.
wherein the background is the radioactivity of a thin layer chromatography plate which was not spotted.

Row | SMILES | half-life at 6 μg/mL [1] [h] | Half-life [1] [h] | IC50 (ACAT2) [nM] | Specific activity ((IC50 of the test compound)/(IC50 of PRD 043)) (ACAT2)
1 | CC(=O)O[C@H]1CC2C(C)(COC(=O)C(C)C)[C@@H](OC(=O)C(C)C)CC[C@]2(C)C2[C@@H](O)c3c(cc(-c4cccnc4)oc3=O)O[C@@]21C (stereo partly shown) [PRD187, 1,11-O-diisobutyryl-1,11-dideacetylpyripyropene A] | ≥ 9 | >9 | 0.5 to 1 | +++ (10<specific activity≦20)
2 | CC1(COC(=O)c2ccccc2)C2C[C@H](OC(=O)c3ccc(C#N)cc3)[C@@]3(C)Oc4cc(-c5cccnc5)oc(=O)c4[C@H](O)C3[C@@]2(C)CC[C@@H]1OC(=O)c1ccccc1 (stereo partly shown) [PRD166, 7-O-p-cyanobenzoyl-1,11-O-dibenzoyl-1,7,11-trideacetylpyripyropene A] | ≥ 9 | >9 | 0.5 to 1 | +++ (10<specific activity≦20)
3 | CC(=O)OCC1(C)C2C[C@H](OC(=O)c3ccc(C#N)cc3)[C@@]3(C)Oc4cc(-c5cccnc5)oc(=O)c4[C@H](O)C3[C@@]2(C)CC[C@@H]1OC(=O)C(C)C (stereo partly shown) [PRD119, 7-O-p-cyanobenzoyl-1,7-dideacetyl-1-O-isobutyrylpyripyropene A] | ≥ 9 | >9 | 0.5 to 1 | ++++ (20<specific activity)
4 | Cc1ccc([C@@H]2OCC3(C)C4C[C@H](OC(=O)c5ccc(C#N)cc5)[C@@]5(C)Oc6cc(-c7cccnc7)oc(=O)c6[C@H](O)C5[C@@]4(C)CC[C@@H]3O2)c(C)c1 (stereo partly shown) [PRD159, 1,11-O-o,p-dimethylbenzylidene-7-O-p-cyanobenzoyl-1,7,11-trideacetylpyripyropene A] | ≥ 9 | >9 | 0.5 to 1 | +++ (10<specific activity≦20)
5 | CC12CO[C@@H](c3ccccc3F)O[C@H]1CC[C@@]1(C)C2C[C@H](OC(=O)c2ccc(C#N)cc2)[C@@]2(C)Oc3cc(-c4cccnc4)oc(=O)c3[C@H](O)C12 (stereo partly shown) [PRD163, 1,11-O-o-fluorobenzylidene-7-O-p-cyanobenzoyl-1,7,11-trideacetylpyripyropene A] | ≥ 9 | >9 | 0.5 to 1 | +++ (10<specific activity≦20)
6 | CC(=O)OCC1(C)C2C[C@H](OC(=O)c3ccc(C#N)cc3)[C@@]3(C)Oc4cc(-c5cccnc5)oc(=O)c4[C@H](O)C3[C@@]2(C)CC[C@@H]1OC(=O)c1ccccc1 (stereo partly shown) [PRD121, 7-O-p-cyanobenzoyl-1,7-dideacetyl-1-O-benzoylpyripyropene A] | ≥ 9 | >9 | 0.5 to 1 | +++ (10<specific activity≦20)
7 | CC(C)C(=O)OCC1(C)C2C[C@H](OC(=O)c3ccc([N+](=O)[O-])cc3)[C@@]3(C)Oc4cc(-c5cccnc5)oc(=O)c4[C@H](O)C3[C@@]2(C)CC[C@@H]1OC(=O)C(C)C (stereo partly shown) [PRD079, 7-O-p-nitrobenzoyl-1,11-O-diisobutyryl-1,7,11-trideacetylpyripyropene A] | ≥ 9 | >9 | 0.5 to 1 | +++ (10<specific activity≦20)
8 | Cc1ccc([C@@H]2OCC3(C)C4C[C@H](OC(=O)c5ccc(F)cc5)[C@@]5(C)Oc6cc(-c7cccnc7)oc(=O)c6[C@H](O)C5[C@@]4(C)CC[C@@H]3O2)cc1 (stereo partly shown) [PRD156, 1,11-O-p-methylbenzylidene-7-O-p-fluorobenzoyl-1,7,11-trideacetylpyripyropene A] | ≥ 9 | >9 | < 0.5 | ++++ (20<specific activity)
9 | COc1ccccc1[C@@H]1OCC2(C)C3C[C@H](OC(=O)c4ccc(C#N)cc4)[C@@]4(C)Oc5cc(-c6cccnc6)oc(=O)c5[C@H](O)C4[C@@]3(C)CC[C@@H]2O1 (stereo partly shown) [PRD161, 1,11-O-o-methoxybenzylidene-7-O-p-cyanobenzoyl-1,7,11-trideacetylpyripyropene A] | ≥ 9 | >9 | 0.5 to 1 | +++ (10<specific activity≦20)
10 | CC(=O)O[C@H]1CC[C@@]2(C)C(C[C@H](OC(C)=O)[C@@]3(C)Oc4cc(-c5cccnc5)oc(=O)c4[C@H](O)C23)C1(C)COC(=O)c1ccccc1 (stereo partly shown) [PRD177, 11-O-benzoyl-11-deacetylpyripyropene A] | ≥ 9 | >9 | 1 to 10 | +++ (10<specific activity≦20)
11 | Cc1cccc([C@@H]2OCC3(C)C4C[C@H](OC(=O)c5ccc(F)cc5)[C@@]5(C)Oc6cc(-c7cccnc7)oc(=O)c6[C@H](O)C5[C@@]4(C)CC[C@@H]3O2)c1 (stereo partly shown) [PRD158, 1,11-O-m-methylbenzylidene-7-O-p-fluorobenzoyl-1,7,11-trideacetylpyripyropene A] | ≥ 9 | >9 | 1 to 10 | +++ (10<specific activity≦20)
12 | Cc1ccccc1[C@@H]1OCC2(C)C3C[C@H](OC(=O)c4ccc(F)cc4)[C@@]4(C)Oc5cc(-c6cccnc6)oc(=O)c5[C@H](O)C4[C@@]3(C)CC[C@@H]2O1 (stereo partly shown) [PRD155, 1,11-O-o-methylbenzylidene-7-O-p-fluorobenzoyl-1,7,11-trideacetylpyripyropene A] | ≥ 9 | >9 | 0.5 to 1 | +++ (10<specific activity≦20)
13 | CC12CO[C@@H](c3cccc4ccccc34)O[C@H]1CC[C@@]1(C)C2C[C@H](OC(=O)c2ccc(C#N)cc2)[C@@]2(C)Oc3cc(-c4cccnc4)oc(=O)c3[C@H](O)C12 (stereo partly shown) [PRD180, 1,11-O-o-naphthylidene-7-O-p-cyanobenzoyl-1,7,11-trideacetylpyripyropene A] | ≥ 9 | >9 | 1 to 10 | +++ (10<specific activity≦20)
14 | CC(=O)O[C@H]1CC2C3(C)CO[C@@H](c4ccccc4)O[C@H]3CC[C@]2(C)C2[C@@H](O)c3c(cc(-c4cccnc4)oc3=O)O[C@@]21C (stereo partly shown) [PRD186, 1,11-O-benzylidene-1,11-dideacetylpyripyropene A] | ≥ 9 | >9 | 1 to 10 | +++ (10<specific activity≦20)
15 | Cc1ccccc1[C@@H]1OCC2(C)C3C[C@H](OC(=O)c4ccc(C#N)cc4)[C@@]4(C)Oc5cc(-c6cccnc6)oc(=O)c5[C@H](O)C4[C@@]3(C)CC[C@@H]2O1 (stereo partly shown) [PRD125, 1,11-O-o-methylbenzylidene-7-O-p-cyanobenzoyl-1,7,11-trideacetylpyripyropene A] | ≥ 9 | >9 | 0.5 to 1 | +++ (10<specific activity≦20)
16 | Cc1ccc([C@@H]2OCC3(C)C4C[C@H](OC(=O)c5ccc(F)cc5)[C@@]5(C)Oc6cc(-c7cccnc7)oc(=O)c6[C@H](O)C5[C@@]4(C)CC[C@@H]3O2)c(C)c1 (stereo partly shown) [PRD160, 1,11-O-o,p-dimethylbenzylidene-7-O-p-fluorobenzoyl-1,7,11-trideacetylpyripyropene A] | ≥ 9 | >9 | 0.5 to 1 | +++ (10<specific activity≦20)
